Assay results published in patent US8966812B2, “Trap for bed bugs and the like” (Susan McKnight, Inc., priority 2007, dated 2015).

Key:
Format in all cases: in vivo, cimex lectularius
[1] = system: bed bugs; test: Example 1: climb-up pitfall trap with heat source and lures in an infested apartment building, 14 days; settings: trap with heat source 44.8 to 47.3 degrees Celsius plus lure, FIG. 5
Description: The exterior surface 2 was covered with cloth, the cloth being attached by masking tape, to form a climbing surface. Precipice 3 was formed by the outer edge of the dog dish. Interior surface 4 was formed by the underside of the outer rim of the dog dish which faces upward when the dog dish is turned upside down. Receptacle 5 was formed along the inside of the precipice 3 by the interior surface 4 and the retaining surface 6, effectively forming a capture moat area. The retaining surface 6 was formed by the underside of the inner bowl walls of the dog dish. Center stage 7 was formed by the underside of the bowl portions of the dog dish. The trap 1 was positioned on the floor of an apartment building known to be infested by bed bugs. Referring to the chronological chart of FIG. 5, the trap 1 was initially loaded with a heat blanket (heat source 8) alone. The heat blanket generated temperatures of 44.8 to 47.3 degrees Celsius (112.6 to 117.1 degrees Fahrenheit). The trap 1 with heat source 8 was tested for 14 days. The trap 1 was then loaded with an octenol lure in addition to the heat source 8, but excluding lactic acid. The heat blanket again generated heat. The trap 1 was then loaded with an octenol and L-lactic acid lure as described above, in place of the octenol lure. The heat blanket again generated heat.

[2] = system: bed bugs; test: Example 2: climb-up pitfall trap with heat source and lures incl. experimental lure composition, infested apartment building, 14 days; settings: trap with heat source plus lure, tested several times for 14 days, FIG. 6
Description: A molded polypropylene dog dish was turned upside down to form climb-up pitfall trap 1 as described in Example 1. The exterior surface 2 was covered with Pellon® featherweight fusible interfacing to form a climbing surface. […] The trap 1 was positioned on the floor of an apartment building known to be infested by bed bugs. As indicated in the bar chart of FIG. 6, the trap 1 was loaded with a heat blanket (heat source 8). The heat blanket generated temperatures of 44.8 to 47.3 degrees Celsius (112.6 to 117.1 degrees Fahrenheit). The trap with heat source 8 was tested several times for 14 days with a modest mean trap count. This test served as a control test. The trap was then loaded with an octenol lure without L-lactic acid. The heat blanket again generated heat. […] The trap was then loaded with an octenol and L-lactic acid lure, in place of the octenol lure. The heat blanket again generated heat. […] The trap was then loaded with an experimental lure consisting of a combination of 100 micrograms of L-lactic acid, 33 micrograms of propionic acid, 0.33 micrograms of butyric acid, 0.33 micrograms of valeric acid and 100 micrograms of octenol (lure composition 10), the experimental lure being combined in a fragrance releasing gel. The heat blanket again generated heat. […]

[3] = system: bed bugs; test: Example 3: carbon dioxide synergism with experimental lure composition, climb-up pitfall trap in infested apartment building, 14 days
Protocol: A molded polypropylene dog dish was turned upside down to form the climb-up pitfall trap 1 as described in Example 2. The trap 1 was positioned on the floor of an apartment building known to be infested by bed bugs, and was tested without any lure. This served as the control test illustrated as Test 6 in FIG. 7. The trap was loaded with a heat blanket (heat source 8). The heat blanket generated temperatures of 44.8 to 47.3 degrees Celsius (112.6 to 117.1 degrees Fahrenheit). The trap 1 with heat source 8 was tested with results shown as Test 2 in FIG. 7. The trap was then loaded with a flexible tube connected to a 5 lbs. compressed carbon dioxide cylinder (carbon dioxide source 9). The carbon cylinder emitted 500 ml/min of carbon dioxide through a tube to the area over the center stage 7 of the trap. The trap with carbon dioxide source 9 was tested with the results shown as Test 4 in FIG. 7. The trap was then loaded with an experimental lure comprising: 100 micrograms of L-lactic acid, 33 micrograms of propionic acid, 0.33 micrograms of butyric acid, 0.33 micrograms of valeric acid and 100 micrograms of octenol (i.e., “lure composition 10”), the experimental lure being combined in a fragrance releasing gel. The trap with experimental lure (lure composition 10) was tested with the results indicated in Test 5 of FIG. 7. […]

Row | Structure (SMILES) | bed bugs caught compared with control test (trap with heat source alone) [1] | mean trap count compared with other traps [2] | number of bed bugs caught, times the control (trap only) ([3]; carbon dioxide 500 ml/min alone, Test 4 of FIG. 7) | number of bed bugs caught, times the control test (trap only) ([3]; heat source plus carbon dioxide 500 ml/min, Test 3 of FIG. 7)
1 | C=CC(O)CCCCC (stereo not shown) [octenol lure, 1-octen-3-ol] | caught more bugs | less effective results than heat alone | – | –
2 | O=C=O [carbon dioxide source 9, carbon dioxide] | – | – | ~3 times | ~4 times
